What was measured:
IL-6 amplifier [1] = assay: Reference Example 10: hIL-6 gene expression in human synovial fibroblasts with epiregulin (RT-PCR); format: cell-based; details: 3 hours, 100 ng/ml epiregulin protein, inhibitor 0 or 10 micromoles/L
Protocol: In addition, the expression amounts of mIL-6 gene were quantified by a real-time RT-PCR method. The real-time RT-PCR method was performed using a GeneAmp 5700 sequence detection system (Applied Biosystems) and a SYBER green PCR Master Mix (Sigma-Aldrich Co. LLC.). The conditions of the PCR amplification were as follows: the amplification was performed in 40 cycles, each cycle consisting of thermal denaturation (94° C., 15 seconds), annealing (60° C., 30 seconds), and extension reaction (72° C., 30 seconds)). […] After the culture, the expression amount of human IL-6 gene under each condition was quantified by a RT-PCR method in the same manner as in Reference Example 9.

IL-6 amplifier [2] = assay: Example 1: mIL-6 protein production on IL-6 amplifier activation in BC-1 cells or MEFs (ELISA); format: cell-based, mouse; details: 30 min pretreatment with 0.1, 1 or 10 micromoles/L ErbB1 inhibitor, then conditions (a) to (d), 24 hours, 10% FBS
Protocol: 2×10^5 mouse BC-1 cells were cultured in an RPMI 1640 medium for 24 hours under each of the following conditions: • (a) in the presence of 10% FBS, • (b) with the addition of 50 ng/ml of hIL-6 protein and 50 ng/ml of hIL-6R protein (hereinafter referred to as “hIL-6/6R proteins”) and in the presence of 10% FBS, • (c) with the addition of 50 ng/ml of mIL-17A protein and in the presence of 10% FBS, • (d) with the addition of hIL-6/6R proteins at 50 ng/ml and mIL-17A protein at 50 ng/ml and in the presence of 10% FBS, • (e) in the absence of FBS, • (f) with the addition of hIL-6/6R proteins each at 50 ng/ml and in the absence of FBS, • (g) with the addition of 50 ng/ml of mIL-17A protein and in the absence of FBS, or • (h) with the addition of hIL-6/6R proteins each at 50 ng/ml and mIL-17A protein at 50 ng/ml and in the absence of FBS.
2×10^5 mouse BC-1 cells or 2×10^5 mouse embryonic fibroblasts (MEFs) were cultured for 30 minutes in an RPMI 1640 medium, in the presence of 0.1, 1, or 10 micromoles/L of PD153065; or in the presence of 0.1, 1, or 10 micromoles/L of PD168393 (Calbiochem). […]
After the culture, the production amount of mouse IL-6 protein under each condition was quantified by an ELISA method. […]

IL-6 amplifier [3] = assay: Reference Example 5: mIL-6 production on IL-6 amplifier activation with epiregulin in BC-1 cells (ELISA); format: cell-based; details: 24 hours, 100 ng/ml mouse epiregulin protein, conditions (e) to (h), inhibitor 0, 0.1, 1 or 10 micromoles/L
Protocol: After the culture, the production amount of mouse IL-6 (mIL-6) protein in each of the clones, i.e., the amount of mIL-6 protein in the medium solution, was quantified by an ELISA method. In the ELISA method, anti-mIL-6 antibody and an ELISA kit, both manufactured by eBioscience, Inc., were used. In addition, a cell proliferation assay was performed for each of the clones, using a TetraColor ONE kit (Seikagaku Corporation). […]
After the culture, the production amount of mouse IL-6 protein under each condition was quantified by an ELISA method in the same manner as in Reference Example 1. […]

[4] = system: cytokine-induced arthritis mice; assay: Clinical score of arthritis in cytokine-induced arthritis mice (F759 mice); format: in vivo, mouse
Protocol: On each of days 0, 1, and 2, 100 ng of mIL-6 protein and 100 ng of mIL-17A protein, as cytokines, were injected into the malleolus joints of 8-week-old F759 mice to induce arthritis. At the same time, on each of days 0 to 23, 10 micrograms of PD153035 dissolved in DMSO was injected into the malleolus joints (n=6). Mice injected with the cytokines and DMSO only (n=6), and mice injected with DMSO only (n=6) served as control groups.
From day 0 to day 23, symptom of arthritis was evaluated by clinical scores. Specific examples of the evaluation are described below and in FIG. 2. Specifically, for example, the clinical score is 0 if the movable range of malleolus joint is a healthy state as shown in FIG. 14(A), and the clinical score is 3 if severe arthritis develops and the movable range of malleolus joint is 60° smaller than the healthy case as shown in FIG. 14(B). Further, the clinical score is 1 if the movable range of malleolus joint is 20° smaller than the healthy case, and the clinical score is 2 if the movable range of malleolus joint is 40° smaller than the healthy case.
F759 mice used as cytokine-induced arthritis mice are genetically modified mice in which F759 mutation (in which tyrosine residue 759 (Y) is replaced by phenylalanine (F) in gp130 protein, a receptor of IL-6 protein, etc.) is introduced (Non-Patent Literature 3); and in F759 mice, dysregulation of IL-6 amplifier is observed (Non-Patent Literature 1). Dysregulation of IL-6 amplifier observed in F759 mice is believed to be caused as follows: SOCS3 protein signal transduction, which is dependent on the phosphorylation status of tyrosine residue 759 (Y759) of gp130 protein, is inhibited by F759 mutation, thereby decreasing the action of suppressing STAT3 signals via SOCS3 protein to enhance STAT3-dependent signals. It is known that autoimmune arthritis develops in almost 100% of the mice one to one-and-a-half years after birth. It is also known that arthritis develops earlier by injecting inflammatory cytokines, such as IL-6 and IL-17, into joints (e.g., malleolus joints) of the mice. […]

[5] = system: experimental autoimmune encephalomyelitis (EAE) mice; assay: Clinical score in experimental autoimmune encephalomyelitis (EAE) mice; format: in vivo, mouse; details: 5 mg intraperitoneal on each of days 0 to 6, scored day 0 to 13, control DMSO
Protocol: EAE mice were made according to the method described in Non-Patent Literature 1.
200 micrograms of MOG (myelin oligodendrocyte glycoprotein) peptide (peptide comprising residues 33 to 55 of the full-length amino acid sequence of mouse MOG protein (amino acid sequence shown in SEQ ID NO: 9)) dissolved in Complete Freund's adjuvant (CFA) was administered to the tail of a 7- to 8-week-old C57/B6-strain mouse by subcutaneous injection, followed by intravenous injection of 200 nanograms of pertussis toxin (PTx).
A MOG-specific CDCT cell group was obtained according to a ordinary method from the spleen removed after feeding the above mouse for 10 days. 2×10^5 cells of the MOG-specific CDCT cells were cultured with 5×10^5 C57/B6-strain mouse bone marrow-derived dendritic cells (BMDCs) pulsed with MOG peptide in an RPMI 1640 medium containing 10% FBS in the presence of 20 ng/ml of recombinant IL-23 (rIL-23) protein in an incubator at a temperature of 37° C. to obtain a cell group containing pathogenic Th17 cells. […]
From day 0 to day 12, the clinical score in each mouse was evaluated according to the method described in Non-Patent Literature 1. […]
From day 0 to day 13, the clinical score in each mouse was evaluated according to the method described in Non-Patent Literature 1.

IL-6 amplifier [6] = assay: Reference Example 3: effect of growth factors on mIL-6 protein production in BC-1 cells (ELISA); format: cell-based, mouse; details: 24 hours, hIL-6/6R and mIL-17A each 50 ng/ml, growth factor added, versus none added
Protocol: 2×10^5 mouse BC-1 cells were cultured for 24 hours in an RPMI 1640 medium containing hIL-6/6R proteins each at 50 ng/ml and mIL-17A protein at 50 ng/ml under the condition in which 100 ng/ml of mouse EGF protein (R&D Systems, Inc.), 100 ng/ml of human HB-EGF protein (R&D Systems, Inc.), 0.1, 1, 10, or 100 ng/ml of mouse epiregulin protein (R&D Systems, Inc.), 50 ng/ml of mouse VEGF protein (R&D Systems, Inc.), 50 ng/ml of mouse FGF7 protein (R&D Systems, Inc.), or 300 ng/ml of mPDGF-CC protein (R&D Systems, Inc.) was separately added. Mouse BC-1 cells cultured under the condition in which only hIL-6/6R proteins and mIL-17A protein were added served as a control group.
After the culture, the production amount of mIL-6 protein under each condition was quantified by an ELISA method in the same manner as in Reference Example 1. FIGS. 5 and 6 show the results.

[7] = mIL-6 + mIL-17A days 0, 1, 2, 10 micrograms into malleolus joints on each of days 0 to 23, scored day 0 to 23

With `COc1cc2ncnc(Nc3cccc(Br)c3)c2cc1OC` [PD153035, 4-[(3-Bromophenyl)amino]-6,7-dimethoxyquinazoline] the “Increase in the amount of transcription of hIL-6 due to epiregulin protein” value (IL-6 amplifier [1]) was “inhibited in a manner dependent on the addition amount”, the “increase in the expression amount of mIL-6 protein due to activation of IL-6 amplifier” value (IL-6 amplifier [2]) was “can be suppressed” and the “Increase in the amount of transcription of mIL-6 due to epiregulin protein (production amount of mouse IL-6 protein by ELISA)” value (IL-6 amplifier [3]) was “inhibited in a manner dependent on the addition amount”. For the same molecule, the “symptom of arthritis (clinical score)” value [4, 7] was “symptom of cytokine-induced arthritis was alleviated, or worsening of symptom of cytokine-induced arthritis was suppressed”.
In the case of `C=CC(=O)Nc1ccc2ncnc(Nc3cccc(Br)c3)c2c1` [PD168393, 4-[(3-Bromophenyl)amino]-6-acrylamidoquinazoline], the “increase in the expression amount of mIL-6 protein due to activation of IL-6 amplifier” value (IL-6 amplifier [2]) is reported as “can be suppressed” and the “symptom of arthritis (clinical score)” value ([4]; mIL-6 + mIL-17A days 0, 1, 2, 10 micrograms into malleolus joints on each of days 0 to 11, scored day 0 to 23) is reported as “symptom of cytokine-induced arthritis was alleviated, or worsening of symptom of cytokine-induced arthritis was suppressed”.
For `COc1cc2ncnc(Nc3ccc(F)c(Cl)c3)c2cc1OCCCN1CCOCC1` [gefitinib, N-(3-chloro-4-fluoro-phenyl)-7-methoxy-6-(3-morpholin-4-ylpropoxy) quinazolin-4-amine], the “symptom of experimental autoimmune encephalomyelitis (clinical score)” value [5] was “symptom of experimental autoimmune encephalomyelitis was alleviated, or worsening of symptom of experimental autoimmune encephalomyelitis was suppressed” and the “symptom of arthritis (clinical score)” value [4, 7] was “symptom of cytokine-induced arthritis was alleviated, or worsening of symptom of cytokine-induced arthritis was suppressed”.
In the case of “EGF protein: mouse EGF protein (R&D Systems, Inc.), ligand of ErbB1 protein (NSYPGCPSSYDGYCLNGGVCMHIESLDSYTCNCVIGYSGDRCQTRDLRWWELR)”, the “production amount of mIL-6 protein” value (IL-6 amplifier [6]) is reported as “significantly (p value <0.01) increased”.

Source: patent publication US20130236473A1, “THERAPEUTIC AGENTS AND PROPHYLACTIC AGENTS FOR SYMPTOMS ACCOMPANYING AUTOIMMUNE DISEASES, INFLAMMATORY DISEASES, ALLERGY DISEASES AND ORGAN TRANSPLANTS” (OSAKA UNIVERSITY, priority 2010, published 2013)
